According to ChEMBL document CHEMBL3045108, “Advanced QSRR models of toxicological screening of basic drugs in whole blood by UPLC-TOFMS” (Med Chem Res, 2012):

Test system: Blood
Experiment: Drug level in Homo sapiens (human) whole blood assessed as retention time by UPLC-TOF-MS analysis

SMILES	Retention_time
CN(C)CCc1c[nH]c2ccccc12	2.89 min
CNC(C)Cc1ccc(OC)cc1 (configuration not stated)	3.14 min
CN1CCC[C@@H]1Cc1c[nH]c2ccc(CCS(=O)(=O)c3ccccc3)cc12	5.21 min
CCCc1nc(C)c2c(=O)[nH]c(-c3cc(S(=O)(=O)N4CCN(CC)CC4)ccc3OCC)nn12	5.17 min
CNCCCC1(c2ccc(F)cc2)OCc2cc(C#N)ccc21 (configuration not stated)	5.47 min
CCCc1nn(C)c2c(=O)[nH]c(-c3cc(S(=O)(=O)N4CCN(C)CC4)ccc3OCC)nc12	5.54 min
CC(C=C(c1ccccc1)c1ccccc1)N(C)C (configuration not stated)	5.72 min
CCNCCN1C(=O)CN=C(c2ccccc2F)c2cc(Cl)ccc21	6.19 min
NC1=Nc2ccc(Cl)cc2C(c2ccccc2)=[N+]([O-])C1	4.85 min
CCC(Cc1ccc2c(c1)OCO2)NC (configuration not stated)	3.61 min
COc1cc(CCN)c(OC)cc1Br	4.52 min
COc1cc(CCN)c(OC)cc1I	4.92 min
CN(C)c1nc(N)c(C(=O)NC(=N)N)nc1Cl	3.54 min
CCOC(=O)[C@H](CCc1ccccc1)N[C@@H](C)C(=O)N1CCC[C@H]1C(=O)O	5.23 min
COc1ccc(N2CCNCC2)cc1	2.59 min
COc1ccc(CCN(C)CCCC(C#N)(c2ccc(OC)c(OC)c2)C(C)C)cc1OC (configuration not stated)	5.95 min
CN1C(=O)CN=C(c2ccccc2F)c2cc(N)ccc21 [7-AMINO-FLUNITRAZEPAM]	4.02 min
Nc1ccc2c(c1)C(c1ccccc1)=NCC(=O)N2 [7-AMINO-NITRAZEPAM]	2.26 min
Nc1ccc2c(c1)C(c1ccccc1Cl)=NCC(=O)N2 [7-AMINOCLONAZEPAM]	3.39 min
CCCC(=O)Nc1ccc(OCC(O)CNC(C)C)c(C(C)=O)c1 (configuration not stated) [ACEBUTOLOL]	4.07 min
CC(=O)c1ccc2c(c1)N(CCCN(C)C)c1ccccc1S2 [ACEPROMAZINE]	5.67 min
Cc1ccc(/C(=C\CN2CCCC2)c2cccc(/C=C/C(=O)O)n2)cc1 [ACRIVASTINE]	5.64 min
Cc1nnc2n1-c1ccc(Cl)cc1C(c1ccccc1)=NC2 [ALPRAZOLAM]	6.09 min

SMILES	Retention_time
CCN1CCCC1CNC(=O)c1cc(S(=O)(=O)CC)c(N)cc1OC (configuration not stated) [AMISULPRIDE]	3.4 min
CN(C)CCC=C1c2ccccc2CCc2ccccc21 [AMITRIPTYLINE]	5.86 min
CCOC(=O)C1=C(COCCN)NC(C)=C(C(=O)OC)C1c1ccccc1Cl (configuration not stated) [AMLODIPINE]	5.94 min
CC(N)Cc1ccccc1 (configuration not stated) [AMPHETAMINE]	2.6 min
O=C1CCc2ccc(OCCCCN3CCN(c4cccc(Cl)c4Cl)CC3)cc2N1 [ARIPIPRAZOLE]	5.9 min
CN(C)C(=O)Oc1cc(OC(=O)N(C)C)cc(C(O)CNC(C)(C)C)c1 (configuration not stated) [BAMBUTEROL]	4.84 min
CCOC(=O)c1ccc(N)cc1 [BENZOCAINE]	5.15 min
C[C@@H](Cc1ccccc1)N(C)Cc1ccccc1 [BENZPHETAMINE]	5.24 min
OC(CCN1CCCCC1)(c1ccccc1)C1CC2C=CC1C2 (configuration not stated) [BIPERIDEN]	5.78 min
CC(C)NCC(O)COc1ccc(COCCOC(C)C)cc1 (configuration not stated) [BISOPROLOL]	5.06 min
O=C1CN=C(c2ccccn2)c2cc(Br)ccc2N1 [BROMAZEPAM]	5.33 min
Cc1nnc2n1-c1sc(Br)cc1C(c1ccccc1Cl)=NC2 [BROTIZOLAM]	6.27 min
CCCCN1CCCCC1C(=O)Nc1c(C)cccc1C (configuration not stated) [BUPIVACAINE]	5.08 min
CO[C@]12CC[C@@]3(C[C@@H]1[C@](C)(O)C(C)(C)C)[C@H]1Cc4ccc(O)c5c4[C@@]3(CCN1CC1CC1)[C@H]2O5 [BUPRENORPHINE]	5.59 min
O=C1CC2(CCCC2)CC(=O)N1CCCCN1CCN(c2ncccn2)CC1 [BUSPIRONE]	5.14 min
COc1ccccc1OCCNCC(O)COc1cccc2[nH]c3ccccc3c12 (configuration not stated) [CARVEDILOL]	5.71 min
C[C@H](N)[C@@H](O)c1ccccc1 [CATHINE]	2.05 min
C[C@H](N)C(=O)c1ccccc1 [CATHINONE]	2.09 min
CNC1=Nc2ccc(Cl)cc2C(c2ccccc2)=[N+]([O-])C1 [CHLORDIAZEPOXIDE]	4.94 min
Clc1cccc(N2CCNCC2)c1 [CHLOROPHENYLPIPERAZINE]	4.08 min
CN(C)CCCN1c2ccccc2Sc2ccc(Cl)cc21 [CHLORPROMAZINE]	6.12 min
CN(C)CC/C=C1/c2ccccc2Sc2ccc(Cl)cc21 [CHLORPROTHIXENE]	6.18 min
C(=C\c1ccccc1)/CN1CCN(C(c2ccccc2)c2ccccc2)CC1 [CINNARIZINE]	6.57 min

SMILES	Retention_time
CN(C)CCCC1(c2ccc(F)cc2)OCc2cc(C#N)ccc21 (configuration not stated) [CITALOPRAM]	5.53 min
CN1C(=O)CC(=O)N(c2ccccc2)c2cc(Cl)ccc21 [CLOBAZAM]	6.28 min
CN(C)CCCN1c2ccccc2CCc2ccc(Cl)cc21 [CLOMIPRAMINE]	6.22 min
O=C1CN=C(c2ccccc2Cl)c2cc([N+](=O)[O-])ccc2N1 [CLONAZEPAM]	5.99 min
Clc1cccc(Cl)c1N=C1NCCN1 [CLONIDINE]	2.44 min
CN1CCN(C2=Nc3cc(Cl)ccc3Nc3ccccc32)CC1 [CLOZAPINE]	5.1 min
COC(=O)[C@H]1[C@@H](OC(=O)c2ccccc2)C[C@@H]2CC[C@H]1N2C [COCAINE]	4.46 min
COc1ccc2c3c1O[C@H]1[C@@H](O)C=C[C@H]4[C@@H](C2)N(C)CC[C@@]341 [CODEINE]	2.5 min
CN1CCN(C(c2ccccc2)c2ccccc2)CC1 [CYCLIZINE]	5.52 min
O=C1C[N+]([O-])=C(c2ccccc2)c2cc(Cl)ccc2N1 [DEMOXEPAM]	5.62 min
COc1ccc2c(c1)[C@]13CCCC[C@@H]1[C@H](C2)N(C)CC3 [DEXTROMETHORPHAN]	5.38 min
CN1CC[C@@]23CCCC[C@@H]2[C@@H]1Cc1ccc(O)cc13 [DEXTRORPHAN]	3.82 min
CCN(CC)C(C)C(=O)c1ccccc1 (configuration not stated) [DIETHYLPROPION]	3.05 min
COc1ccc([C@@H]2Sc3ccccc3N(CCN(C)C)C(=O)[C@@H]2OC(C)=O)cc1 [DILTIAZEM]	5.63 min
CCOC(=O)C1(c2ccccc2)CCN(CCC(C#N)(c2ccccc2)c2ccccc2)CC1 [DIPHENOXYLATE]	6.56 min
COc1cc(CC(C)N)c(OC)cc1C (configuration not stated) [DOM]	4.67 min
COc1cc2nc(N3CCN(C(=O)C4COc5ccccc5O4)CC3)nc(N)c2cc1OC (configuration not stated) [DOXAZOSIN]	5.43 min
CN(C)CCC=C1c2ccccc2COc2ccccc21 [DOXEPIN]	5.59 min
c1cc2c(c(N3CCNCC3)c1)OCCO2 [ELTOPRAZINE]	4.9 min
CN[C@@H](C)[C@H](O)c1ccccc1 [EPHEDRINE]	2.28 min
Clc1ccc2c(c1)C(c1ccccc1)=NCc1nncn1-2 [ESTAZOLAM]	5.95 min
CCOC(=O)C1=C(C)NC(C)=C(C(=O)OC)C1c1cccc(Cl)c1Cl (configuration not stated) [FELODIPINE]	7.44 min
O=C(NCC1CCCCN1)c1cc(OCC(F)(F)F)ccc1OCC(F)(F)F (configuration not stated) [FLECAINIDE]	5.58 min

SMILES	Retention_time
CCOC(=O)c1ncn2c1CN(C)C(=O)c1cc(F)ccc1-2 [FLUMAZENIL]	5.13 min
CN1C(=O)CN=C(c2ccccc2F)c2cc([N+](=O)[O-])ccc21 [FLUNITRAZEPAM]	6.16 min
CNCCC(Oc1ccc(C(F)(F)F)cc1)c1ccccc1 (configuration not stated) [FLUOXETINE]	6.08 min
CCN(CC)CCN1C(=O)CN=C(c2ccccc2F)c2cc(Cl)ccc21 [FLURAZEPAM]	5.53 min
COCCCC/C(=N\OCCN)c1ccc(C(F)(F)F)cc1 [FLUVOXAMINE]	5.91 min
NCC1(CC(=O)O)CCCCC1 [GABAPENTIN]	2.41 min
O=C1CN=C(c2ccccc2)c2cc(Cl)ccc2N1CC(F)(F)F [HALAZEPAM]	7.22 min
O=C(CCCN1CCC(O)(c2ccc(Cl)cc2)CC1)c1ccc(F)cc1 [HALOPERIDOL]	5.57 min
COc1ccc2c3c1O[C@H]1C(=O)CC[C@H]4[C@@H](C2)N(C)CC[C@]314 [HYDROCODONE]	2.96 min
CN1CC[C@]23c4c5ccc(O)c4O[C@H]2C(=O)CC[C@H]3[C@H]1C5 [HYDROMORPHONE]	1.84 min
OCCOCCN1CCN(C(c2ccccc2)c2ccc(Cl)cc2)CC1 (configuration not stated) [HYDROXYZINE]	5.91 min
CC[C@H]1C[C@@H]2C[C@H]3c4[nH]c5ccc(OC)cc5c4CCN(C2)[C@@H]13 [IBOGAINE]	4.94 min
CN(C)CCCN1c2ccccc2CCc2ccccc21 [IMIPRAMINE]	5.81 min
CC1Cc2ccccc2N1NC(=O)c1ccc(Cl)c(S(N)(=O)=O)c1 (configuration not stated) [INDAPAMIDE]	5.79 min
COC(=O)C1=C(C)NC(C)=C(C(=O)OC(C)C)C1c1cccc2nonc12 (configuration not stated) [ISRADIPINE]	7 min
CNC1(c2ccccc2Cl)CCCCC1=O (configuration not stated) [KETAMINE]	3.57 min
CCC(=O)C1(c2cccc(O)c2)CCN(C)CC1 [KETOBEMIDONE]	3.22 min
CC(CCc1ccccc1)NCC(O)c1ccc(O)c(C(N)=O)c1 (configuration not stated) [LABETALOL]	4.95 min
Nc1nnc(-c2cccc(Cl)c2Cl)c(N)n1 [LAMOTRIGINE]	3.78 min
COC(=O)C1=C(C)NC(C)=C(C(=O)OC(C)(C)CN(C)CCC(c2ccccc2)c2ccccc2)C1c1cccc([N+](=O)[O-])c1 (configuration not stated) [LERCANIDIPINE]	6.8 min
COc1ccc2c(c1)N(C[C@H](C)CN(C)C)c1ccccc1S2 [LEVOMEPROMAZINE]	5.98 min
CN1CC[C@]23CCCC[C@H]2[C@H]1Cc1ccc(O)cc13 [LEVORPHANOL]	3.82 min
CN(C)C(=O)C(CCN1CCC(O)(c2ccc(Cl)cc2)CC1)(c1ccccc1)c1ccccc1 [LOPERAMIDE]	6.37 min
